{
  "source": "patent US20260133203A1",
  "about": "“DETECTION OF FUMARATE-DERIVED MODIFICATION IN A TEST SAMPLE” (UNIVERSITY OF SOUTH CAROLINA, priority 2017, published 2026)",
  "molecular_target": "T1, Collapsin Response Mediator 2 (CRMP2) (Rattus norvegicus, UniProt P47942)",
  "T1 construct": "Primary neurons from newborn rat brain cortices were isolated and cultured; endogenous in cells; host or cells: primary rat cortical neurons (postnatal day 1)",
  "assay": "LC-MS/MS site mapping of CRMP2 peptide GLYDGPVCEVSVTPK succination",
  "format": "cell-based",
  "settings": "primary rat neurons, +2 charge-state, y8 and b8 fragment ions",
  "experimental": "Primary neurons from newborn rat brain cortices were isolated and cultured using an adaptation of methods described previously. Briefly, postnatal day 1 rats were sacrificed by decapitation, the brains were aseptically dissected, and cortices were separated from the rest of the brain in ice-cold Hibernate®-A medium (Life Technologies) containing 2% (v/v) B-27 supplement (Life Technologies) and 0.5 mM glutamine (Invitrogen™). The tissue was minced in fragments of about 1 mm3 with a scalpel and subjected to digestion with 2 mg/ml papain (Worthington) in the supplemented Hibernate®-A medium for 20 minutes at 30° C. in a shaker incubator set at 100 rpm. After thorough trituration through a fire-polished Pasteur pipette, the tissue was allowed to settle for 5 minutes and the supernatant was carefully layered on top of a discontinuous OptiPrep™ (Sigma-Aldrich™) gradient prepared in Hibernate®-A medium; the layers contained 35, 25, 20 and 15% OptiPrep™. […] After a centrifugation at 500 g for 5 min at room temperature, cells were resuspended in Neurobasal™—A medium containing 0.5 mM glutamine, 2% B-27 supplement, and 5 ng/ml bFGF (Invitrogen™); counted and plated on 24-well plates pretreated with 0.01% poly-L-lysine (Sigma-Aldrich™) at a density of 200,000 cells/well. […] The protein content in the different samples was determined by the Lowry assay. […]",
  "note": "Where a name gives a salt, the structure may show the parent alone.",
  "data": [
    {"smiles": "COC(=O)/C=C/C(=O)OC", "note": "[DMF, dimethyl fumarate]", "values": [
      {"measurement": "site of succination on CRMP2", "result": "Cys504"}
    ]}
  ]
}
